Laboratory results: patent US20140127185A1, “METHODS AND COMPOSITIONS USING NEUROPROTECTIVE STEROIDS AND THROMBOLYTIC AGENTS” (priority 2012, published 2014)

Columns and labels:
MMP-9 [1] = assay: Permanent MCAO in rats: MMP-9 in peri-infarct cortex (Western blot, gelatin zymography, immunohistochemistry); format: in vivo, rat; conditions: for Expression of MMP-9 (immunohistochemistry): pMCAO, brain section; for Expression of MMP-9 (immunohistochemistry) / MMP-9 activity/levels (gelatin zymography): peri-infarct cortex at 72 hours; for Expression of MMP-9 (Western blot) / MMP-9 activity/levels (gelatin zymography): permanent MCAO; for Expression of MMP-9 (Western blot): 8 mg/kg i.p. 1 hour and s.c. 6 hours post-occlusion, peri-infarct cortex at 72 hours post-MCAO; for MMP-9 activity/levels (gelatin zymography): 8 mg/kg
From the text: (§1) Permanent focal cerebral ischemia is induced in the rat by direct ligation of the MCA. Peri-operative procedures and physiological monitoring are done similarly to those for thrombotic stroke surgery. Briefly, under anesthesia, the left CCA is isolated through a ventral midline neck incision and ligated permanently with a 4-0 surgical silk ligature. The left temporoparietal region of the head is shaved and a 2-cm incision is made vertically between the orbit and the ear canal. The underlying temporalis muscle is excised, and under direct visualization, the […] MCA is exposed through a 2-mm burr hole drilled 2 mm rostral to the fusion of the zygomatic arch with the squamosal bone. Drilling is performed under saline irrigation to the area throughout the procedure to prevent heat injury. […] The site of the occlusion is proximal to the MCA bifurcation, but distal to the origin of the lenticulostriate arteries. Using fine forceps, the dura and arachnoid overlying the MCA is opened and cut. The MCA is cauterized and cut permanently to […] recanalization using a bipolar electrocauterizer without damaging the brain surface. The temporalis muscle and skin is closed in layers, and rats allowed to recover from anesthesia on the heating pad.
(§2) All experimental treatments by injection are made in stock solutions using HBC (2-hydroxypropyl-β-cyclodextrin, 25% w/v solution in H2O) as the solvent. The HBC vehicle allows progesterone and allopregnanolone to be dissolved in a non-toxic aqueous solution. The initial dose of progesterone is given intraperitoneally for rapid absorption; all other injections are given subcutaneously. A simlar protocol may be followed for allopregnanolone.
(§3) Peri-infarct cortical tissue is processed for protein analysis. Tissues are homogenized in T-per (Pierce, Rockford, Ill.) containing protease inhibitor cocktail (P8340, Sigma). Homogenates are centrifuged for 15 minutes at 13,000 g. 40 μg of total protein is separated on 8-12% gel and transferred onto polyvinylidene difluoride (Millipore, Mass., USA; PVDF) membranes at 300 mA for 2 hours. To measure the level of immunoglobulin, the membranes were incubated overnight at 4° C. with anti Rat IgG conjugated to biotin. bEND 3 cells are subjected to hypoxia/reperfusion for 9 hours and then lysed on ice in 100 μl of RIPA buffer. Cell lysated are boiled and then electrophoresed in 12% SDS-PAGE acrylamide gels, transferred onto PVDF membranes, and incubated for 1 hour in TBS-T (tris-buffered saline and 0.1% Tween 20) containing 5% bovine serum albumin (BSA). Membranes are then incubated overnight at 4° C. with primary antibodies against occludin (Invitrogen, Calif., USA; 1:1000), claudin-5 (Invitrogen; 1:1000), and ZO-1 (Invitrogen; 1:1000), washed in TBS-T, and incubated for 1 hour at room temperature with corresponding peroxidase-conjugated secondary antibodies (1:5000; KPL, Gaithersburg, Md.). All blots are stripped and re-incubated with β-actin antibodies (1:5000, Sigma) as a loading control. The peroxidase reaction is developed with an ECL-plus detection kit (Amersham BioScience, Piscataway, N.J.). Intensity of the bands is measured by an Image Gauge version. 4.0 program (FUJI Photo Film Co., Ltd).
(§4) Rats were randomly assigned to receive progesterone (n=5), allopregnanolone (n=5), or vehicle (n=5). Progesterone and allopregnanolone (8 mg/kg) were dissolved in 22.5% 2-hydroxypropyl-β-cyclodextrin (25% w/v solution in water) (HBC) and given by intraperitoneal injection 1 hour post-occlusion. An additional 8 mg/kg subcutaneous injection was given 6 hours after middle cerebral artery occlusion (MCAO).
(§5) The rats were euthanized at 72 hours post-MCAO. The peri-infarct region was sampled using a 4-mm tissue punch.

MMP-2 = assay: Permanent MCAO in rats: MMP-2 in peri-infarct cortex (Western blot, gelatin zymography, immunohistochemistry); format: in vivo, rat; conditions: for Expression of MMP-2 (immunohistochemistry): pMCAO, brain section; for Expression of MMP-2 (immunohistochemistry) / MMP-2 activity/levels (gelatin zymography): peri-infarct cortex at 72 hours; for Expression of MMP-2 (Western blot) / MMP-2 activity/levels (gelatin zymography): permanent MCAO; for Expression of MMP-2 (Western blot): 8 mg/kg i.p. 1 hour and s.c. 6 hours post-occlusion, peri-infarct cortex at 72 hours post-MCAO; for MMP-2 activity/levels (gelatin zymography): 8 mg/kg
From the text: as §1, §2, §3, §4, §5

MMP-9 [2] = assay: MMP-9 levels in bEND3 cells exposed to H/R and tPA; format: cell-based, mouse; conditions: bEND3 cells exposed to H/R and tPA for 9 hours; progesterone pretreatment
Protocol: The bEnd 3 cells grown to confluence on coverslips are subjected to the indicated treatments. For […], cells are washed three times with PBS, fixed in 3% paraformaldehyde for 10 minutes, permeabilized with 02% Triton X-100 in PBS for 10 minutes and blocked with 10% BSA and 0.1% Triton X-100 in PBS for 1 hour. After washing with PBS, the monolyers are incubated with a primary antibody for occludin (Invitrogen, 1:200) and MMP-9 (Abeam, Mass., USA, 1:200) overnight at 4° C. The cell monolayers are then washed 3 times with PBS and incubated with Alexa Fluor 488 anti-rabbit and orange anti-mouse (Molecular Probes, Eugene, Oreg.) for 1 hour. After washing in PBS, the coverslips are mounted on glass slides with Vectasheild with dapi (Vecta Laboratories).
(§6) To mimic ischemia-like conditions in vitro, immortalized mouse brain endothelial (bEND3) cells were exposed to 6 hours of hypoxia and 3 hours of reoxygeneation with or without the administration of tPA at a dose of 20 μ/ml. […] BBB integrity was evaluated by transendothelial membrane electrical resistance (TEER) measurement, MMP-9 activity, and the alteration of tight junction proteins following in vitro H/R injury.
To directly determine MMP-9 activity after ischemia, proteolytic activity of MMP-9 was measured using a fluorescence resonance energy transfer peptide. […]

claudin-5 = assay: Claudin-5 in H/R-treated bEND3 cells (Western blot); format: cell-based, mouse; conditions: tPA with H/R
Protocol: (§7) An immortalized mouse brain endothelial cell line (bEND 3) is purchased from American Type Culture Collection (ATCC, VA, USA) and cultured in Dulbecco's modified Eagle Medium (DMEM, ATCC) supplemented with 10% fetal bovine serum (ATCC). bEND 3 cells are seeded onto the luminal side of a filter (0.4 μm pore size; Corning, Lowell, MCA) coated with fibronectin (5 μg/ml) in 12-well plates for a transendothelial electrical resistance (TEER) test; and in 100-mm dishes for Western blot studies. Cell cultures are incubated at 37° C. in a 5%/95% mixture of CO2 and atmospheric air, and the medium is replaced every 3 days.
Peri-infarct cortical tissue is processed for protein analysis. Tissues are homogenized in T-per (Pierce, Rockford, Ill.) containing protease inhibitor cocktail (P8340, Sigma). Homogenates are centrifuged for 15 minutes at 13,000 g. […] Intensity of the bands is measured by an Image Gauge version. […]
as §6

MMP-9 [3] = assay: Active MMP-9 fluorometric FRET peptide assay of ischemic cortex lysates; format: in vivo, rat; conditions: 24 hours after ischemia; tPA at 4.5 hours; vs control and tMCAO groups
Protocol: A Fluorimetric SensoLyte™ 490 kit (AnaSpec Corp., San Jose, Calif. USA) is used to quantify the specific enzymetic activity of active MMP-9 by using a fluorescence resonance energy transfer peptide containing a fluorescent donor and quenching acceptor (Lin, Hou et al. 2008). The samples (100 μg) are placed in a 96-well plate containing 50 μl of assay buffer. The proteolytic resonance energy transfer peptide is expressed as a fold change in fluorescence intensity at excitation of 355 nm/emission of 460 nm.
For in vivo evaluation, Male SD rats were subjected to MCAO, reperfused at 4.5 hours and then treated with tPA only (5 mg/kg body weight via femoral vein) at 4.5 hours post-stroke or with progesterone (intraperitoneally) at 2 hours post-stroke plus tPA at 4.5 hours post-stroke. Rats were killed at 24 hours post-ischemia and their brains perfused for evaluation of cerebral hemorrhage, brain swelling, BBB permeability, MMP-9 activity, and the alteration of tight junction proteins.
To directly determine MMP-9 activity after ischemia, proteolytic activity of MMP-9 was measured using a fluorescence resonance energy transfer peptide. […] Consistent with the Western blot results, exposure of cells to H/R and tPA for 9 hours reduced the detected levels of occludin, as compared to control bEND 3 cells, while MMP-9 levels were increased in cells exposed to H/R and tPA for 9 hours.

bEND3 cells = assay: Transendothelial electrical resistance (TEER) after hypoxia/reperfusion (H/R); format: cell-based, mouse
Protocol: as §7
The electrical resistance across the membrane are measured using an Millicell ERS Voltohmmeter (Millipore, Billerica, Mass.). The extracellular matrix-treated Transwell inserts are placed in 12-well plates containing culture medium and then used to measure the background resistance. The resistance measurements of these blank filters are then subtracted from those of filters with cells. Values are shown as Q. based on culture inserts.
To mimic ischemia-like conditions in vitro, immortalized mouse brain endothelial (bEND3) cells were exposed to 6 hours of hypoxia and 3 hours of reoxygeneation with or without the administration of tPA at a dose of 20 μ/ml. Reoxygenation was initiated by adding glucose (4.5 g/L)-containing phenol red-free DMEM for 3 hours at 37° C. in 95% air and 5% CO2. The cells were treated with various concentrations progesterone for 24 hours before hypoxia/reperfusion (H/R). BBB integrity was evaluated by transendothelial membrane electrical resistance (TEER) measurement, MMP-9 activity, and the alteration of tight junction proteins following in vitro H/R injury.

[4] = system: blood-brain barrier (BBB); assay: BBB disruption: serum IgG in ischemic cortex by Western blot; format: in vivo, rat; conditions: progesterone 8 mg/kg, s.c.; with tPA; 24 hours after injury
occludin = assay: Occludin in H/R-treated bEND3 cells (Western blot, immunofluorescence); format: cell-based, mouse
Protocol: as §7, §3
The bEnd 3 cells grown to confluence on coverslips are subjected to the indicated treatments. […]
as §6

Compound	Expression of MMP-9 (immunohistochemistry) (MMP-9 [1])	Expression of MMP-9 (Western blot) (MMP-9 [1])	MMP-9 activity/levels (gelatin zymography) (MMP-9 [1])	Expression of MMP-2 (immunohistochemistry) (MMP-2)	Expression of MMP-2 (Western blot) (MMP-2)	MMP-2 activity/levels (gelatin zymography) (MMP-2)	MMP-9 levels (MMP-9 [2])	Expression of 23-kDa claudin-5 (Western blot) (claudin-5)	MMP-9 activity (FRET peptide) (MMP-9 [3])	H/R-induced decrease of TEER (bEND3 cells; pretreatment with 5, 10 or 20 μM, H/R without tPA)	TEER values compared to untreated (bEND3 cells; progesterone 20 μM, H/R with tPA (FIG. 3C))	Levels of serum IgG in ischemic cortex [4]	Detected levels of occludin (immunofluorescence) (occludin; bEND3 cells exposed to H/R and tPA for 9 hours, progesterone pretreatment)	Expression of occludin (Western blot) (occludin; bEND3 cells, tPA with H/R)
CC(=O)[C@H]1CC[C@H]2[C@@H]3CC[C@H]4C[C@H](O)CC[C@]4(C)[C@H]3CC[C@]12C [allopregnanolone, 3α-hydroxy-5α-pregnan-20-one]	reduced	decreased	decreased	reduced	decreased	decreased								
CC(=O)[C@H]1CC[C@H]2[C@@H]3CCC4=CC(=O)CC[C@]4(C)[C@H]3CC[C@]12C [progesterone, pregn-4-ene-3,20-dione]	reduced	decreased	decreased	reduced	decreased	decreased	completely inhibited	significantly prevented the decrease	inhibited	significantly prevented	significantly higher	reduced	completely inhibited	significantly prevented the decrease
